# Test results from patent US20250276089A1, “CO-DELIVERY OF INHIBITORY NUCLEIC ACIDS AND GENOME EDITORS FOR TUMOR THERAPY” (The Board of Regents of The University of Texas System, priority 2022, published 2025).
# Test system: tumor cells
# Assay: mRNA delivery efficacy in tumor cells treated with an FAK inhibitor plus siCtrl+mRNA-LNPs
# Assay type: cell-based
# Settings: co-administered with siCtrl+mRNA-LNPs
smiles,measurement,value
"CS(=O)(=O)c1cccc(CNc2nc(Nc3ccc4c(c3)CCC(=O)N4)ncc2C(F)(F)F)c1 [FAK inhibitor, PF-573228]",mRNA delivery efficacy and protein expression,enhanced
